Results from US20070078097A1, “Method for treating intermittent claudication comprising the administration of propionyl L-carnitine and a concomitant physical training” (priority 2005, published 2007).

Experiments:
[1] = system: patients with claudication; details: orally given; randomised placebo-controlled trials of the literature; cited from earlier work
claudicant patients = details: six patients; intravenous 3 g bolus followed by infusion of 2 mg/Kg/man for 30 minutes; Brevetti et al. 1988; cited from earlier work
[2] = system: patients with Intermittent Claudication (Leriche-Fontaine Class II); test: Maximum walking distance on treadmill, three phase III placebo-controlled studies; format: in vivo, human; details: for MWD at Month 6/Endpoint, Mean / MWD at Month 6/Endpoint, Median: PLC 2 g/day oral, 3 km/h; for MWD Change from Baseline to Endpoint, Mean / MWD Change from Baseline to Endpoint, Median: PLC 2 g/day
Description: (§1) Three parallel, randomized, double-blind, placebo-controlled, phase III studies in patients with Intermittent Claudication (Leriche-Fontaine Class II) represent the basis for the above considerations. They are study ST 261 201 90 INT (hereinafter referred to as the European study); study ST 94 301 (hereinafter referred to as the Hiatt study); and ST 93 301, hereinafter referred to as the Porter study).
(§2) Diagnosis and main criteria for inclusion for these studies were similar, as follows: intermittent claudication of ascertained vascular origin; age between 40 and 80 years; lesions at iliac-femoral and/or femoro-popliteal level confirmed by angiographic or Doppler examination; no pain at rest (Leriche-Fontaine Class III) or ulcerative lesions (Leriche-Fontaine Class IV); history of claudication >1 year; dietary regime and alcohol intake stable during the study. All patients were strongly encouraged to stop smoking and exercise actively. The latter recommendation was to be achieved either through a supervised, vascular rehabilitation-based program, or via an unsupervised, home-based program.
A total of 316 subjects (PLC, 153 subjects; placebo, 163 subjects) were randomized in the primary intention-to-treat population (ITT) of the European study, which was conducted in 39 centers in West and East Europe, and tested PLC (2 g/day) for 12 months vs. placebo. Patients had to have a maximum walking distance (MWD) at baseline between 50-400 m. and variability over the three treadmill tests carried-out at baseline of ≦25%.
A total of 161 subjects (PLC, 85 subjects; placebo, 76 subjects) were randomized in the ITT population of the Hiatt study, which was performed in 10 centers in the USA and Russia, and tested PLC (2 g/day for 6 months) versus placebo.
A total of 155 subjects (ITT population: PLC, 80 subjects; placebo, 75 subjects) were randomized in the 6-month, Porter study, which was conducted in 16 US centers and tested PLC 2 g/day vs. placebo as its primary target population. All randomized patients had baseline MWD between 50-250 m and variability ≦25%.
These phase III studies evaluated physical performance as their primary efficacy parameter. This was assessed by the maximum walking capacity of patients on a treadmill: the European study used a fixed treadmill with 7% slope and 3 km/hour speed; the Hiatt study used a graded treadmill, starting at 0% slope and increasing by 2% every 2 minutes, with a 2 mph speed; the Porter study used a fixed treadmill with 12% slope and 2 mph speed.
Given the non-normality of response distributions for MWD, the comparison between PLC and placebo-treated patients was based on a non-parametric test, i.e., the Cochrane-Mantel-Haenszel test on the within-center, standardized mid-ranks (MODRIDITS) of changes over baseline, stratified by site.

platelet = details: literature (Pignatelli et al. 2003); cited from earlier work
[3] = system: patients with Intermittent Claudication (Leriche-Fontaine Class II); test: Quality of life questionnaires (PAD-related, SF-36, WIQ), O'Brien global score; format: in vivo, human
Description: as §1, §2
The above studies also assessed quality of life (QoL) as their main secondary efficacy parameter: the European study used the ad-hoc validated PAD-related questionnaire, while the Hiatt and Porter studies used both the very well-known and validated Health Status Survey-Short Form 36 (SF-36) and the Walking Impairment Questionnaire (WIQ).
Similar results were obtained also when considering QoL. Since several questionnaires were used in each study, a global summary statistic was used in order to deal with this issue, as well as with the multiplicity of domains present in each of these questionnaires, i.e., the O'Brien test.

[4] = ITT with concomitant physical exercise, N = 54, P-value vs placebo 0.000
[5] = ITT without concomitant physical exercise, N = 264, P-value vs placebo 0.777
[6] = ITT with concomitant physical exercise, PLC N = 54, P-value vs placebo <0.001
[7] = ITT without concomitant physical exercise, PLC N = 261, P-value vs placebo 0.142

Structure (SMILES) | walking distance in patients with claudication [1] | increase of venous lactate induced by walking test (claudicant patients) | MWD at Month 6/Endpoint, Mean ([2]; ITT with concomitant physical exercise, N = 54, converted to treadmill 7% slope, baseline mean 249.7) | MWD at Month 6/Endpoint, Median ([2]; ITT with concomitant physical exercise, N = 54, treadmill 7% slope, baseline median 239.2) | MWD Change from Baseline to Endpoint, Mean [2, 4] | MWD Change from Baseline to Endpoint, Median [2, 4] | MWD at Month 6/Endpoint, Mean ([2]; ITT without concomitant physical exercise, N = 264, treadmill 7% slope, baseline mean 205.6) | MWD at Month 6/Endpoint, Median ([2]; ITT without concomitant physical exercise, N = 264, treadmill 7% slope, baseline median 171.7) | MWD Change from Baseline to Endpoint, Mean [2, 5] | MWD Change from Baseline to Endpoint, Median [2, 5] | net PLC advantage over placebo in exercise performance at endpoint ([2]; overall ITT subjects of the three studies, p=0.08) | arachidonic acid accumulation in the phospholipids of platelet membrane (platelet) | platelet thromboxane A2 and O2 formation (platelet) | Change in O'Brien scores for QoL questionnaires, Baseline to Endpoint, Mean [3, 6] | Change in O'Brien scores for QoL questionnaires, Baseline to Endpoint, Median [3, 6] | Change in O'Brien scores for QoL questionnaires, Baseline to Endpoint, Mean [3, 7] | Change in O'Brien scores for QoL questionnaires, Baseline to Endpoint, Median [3, 7] | QoL at endpoint compared to the placebo group ([3]; overall ITT subjects, p<0.001)
C[N+](C)(C)C[C@H](O)CC(=O)[O-] [levocarnitine, L-carnitine] | significant increase | lowered | – | – | – | – | – | – | – | – | – | – | – | – | – | – | – | –
CCC(=O)O[C@H](CC(=O)[O-])C[N+](C)(C)C [PLC, propionyl L-carnitine] | significant increase | – | 410.8 m | 400.9 m | 161.1 m | 154.8 m | 325.3 m | 225.5 m | 119.7 m | 36.6 m | 18.2 m | inhibits | reduction | 0.56 | 0.54 | 0.51 | 0.50 | significant improvement
